Here are results for 2 molecules from patent US20010006667A1, “USE AND COMPOSITION OF AN ANTI-SEXUALLY TRANSMITTED DISEASES FORMULATION” (priority 1994, published 2001).

This assay has as its system HIV LAV1 BRU retrovirus clone. In words: Syncytia formation in HT4LacZ cells infected with an HIV viral suspension pre-mixed with test substance. In kind it is cell-based. As for the experimental part:
The formulations were prepared according to the description discussed above, except that the F-Po was prepared with about 2% polycarbophil, no N-9 and about a 1% concentration of Carbomer 934P, rather than 0.5%, and the difference (2%) was made up with additional water.
A viral blank was used as control, and AZT was used for a positive control. Each formulation was set up as an aqueous suspension of a particular concentration. 500 μl. aliquots of viral suspension were separately mixed with 50 ,μl. of each of the test solutions. After 30 minutes, 55 μl. of each of these mixtures were tested directly on HT4LacZ cells in a well also containing DEAE dextran. During the culturing period, the virus supplies the tat gene missing in HT4LacZ cells, leading to LacZ gene transactivation coding for β-galactosidase, indicated by a histochemical coloration. After 72 hours of culturing, infection is stopped by addition of a fixator for ten minutes. After two PBS washes, the colorant is added for ninety minutes. After syncytia (giant multi-nucleated cells, formed by many cells fusing together when infected with HIV) outbreak, the colorant is replaced with water. Observation is performed with an optical microscope, yielding the following results in Table 1: […]

In the case of `Cc1cn([C@H]2C[C@H](N=[N+]=[N-])[C@@H](CO)O2)c(=O)[nH]c1=O` [AZT], under “final conc. 10^−5M”, the “Avg. # Syncytia per well” value is recorded as 0, the “Percent Reduction (of syncytia vs viral reference)” value (shortened to “Percent Reduction”) is on record as 100% and the “Total # Syncytia” value is on record as 0.

As to nonoxynol-9 [N-9], where the note is “0.1 μg/ml”, the “viral infection remaining, % of that exhibited by the HIV viral suspension (FIG. 1)” value is reported as 72%. Further, the “viral infection remaining, % of that exhibited by the HIV viral suspension (FIG. 1)” value (1 μg/ml) was found to be 36%. In addition, under “final conc. 0.10 μg/ml”, the “Avg. # Syncytia per well” value came out at 11.5, the “Percent Reduction” value came out at 28% and the “Total # Syncytia” value worked out at 46. Besides, under “final conc. 1.0 μg/ml”, the “Avg. # Syncytia per well” value turned out to be 5.75, the “Percent Reduction” value was 64% and the “Total # Syncytia” value was determined as 23.
